One series addresses AChE (Rattus norvegicus, UniProt P37136). The series can be described thus: biochemical. Particulars: for Selectivity for AChE: IC50 (BChE)/IC50 (AChE); for IC50: rat brain AChE, Mean ± SD, triplicate.
Series [1] is described as follows: Log P by shake flask method. The series is classed as physicochemical. Particulars: octanol / PBS pH = 7.4, shake flask. On the procedure: Log P is defined as the logarithm of octanol–water partition coefficient. […] Ultraviolet spectrophotometry was applied to determine the concentration of compounds. Log p values were calculated based on the data in triplicate.

A short description of series [2]: pKa by pH-titration method. Particulars: read-out: pKa. The series is classed as physicochemical. As to the method:
pKa is determined by pH-titration method according to the report. The titration curve E vs. VT was recorded and pKa value was calculated.

The target of another series is BChE (Rattus norvegicus, UniProt Q9JKC1). As to the kind of experiment: biochemical. Further details: species or system Sprague–Dawley rat. Conditions: rat serum BChE, Mean ± SD, triplicate.
BChE, sequence (Q9JKC1 24-597): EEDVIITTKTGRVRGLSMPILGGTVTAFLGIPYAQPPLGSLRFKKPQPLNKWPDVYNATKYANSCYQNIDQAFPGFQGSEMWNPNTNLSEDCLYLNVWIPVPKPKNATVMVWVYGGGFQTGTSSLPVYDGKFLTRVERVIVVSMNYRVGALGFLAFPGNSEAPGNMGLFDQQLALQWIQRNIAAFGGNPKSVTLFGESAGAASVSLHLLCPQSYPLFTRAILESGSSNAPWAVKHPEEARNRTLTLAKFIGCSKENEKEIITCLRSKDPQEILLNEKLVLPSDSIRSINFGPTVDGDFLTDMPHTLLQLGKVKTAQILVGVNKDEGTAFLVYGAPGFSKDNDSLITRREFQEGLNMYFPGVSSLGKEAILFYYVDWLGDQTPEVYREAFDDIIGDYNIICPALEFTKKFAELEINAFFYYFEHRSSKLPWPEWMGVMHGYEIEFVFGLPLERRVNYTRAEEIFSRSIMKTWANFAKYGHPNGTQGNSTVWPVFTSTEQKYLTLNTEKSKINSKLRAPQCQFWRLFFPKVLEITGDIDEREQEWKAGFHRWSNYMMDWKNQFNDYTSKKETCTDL

AChE, sequence (P37136 32-614): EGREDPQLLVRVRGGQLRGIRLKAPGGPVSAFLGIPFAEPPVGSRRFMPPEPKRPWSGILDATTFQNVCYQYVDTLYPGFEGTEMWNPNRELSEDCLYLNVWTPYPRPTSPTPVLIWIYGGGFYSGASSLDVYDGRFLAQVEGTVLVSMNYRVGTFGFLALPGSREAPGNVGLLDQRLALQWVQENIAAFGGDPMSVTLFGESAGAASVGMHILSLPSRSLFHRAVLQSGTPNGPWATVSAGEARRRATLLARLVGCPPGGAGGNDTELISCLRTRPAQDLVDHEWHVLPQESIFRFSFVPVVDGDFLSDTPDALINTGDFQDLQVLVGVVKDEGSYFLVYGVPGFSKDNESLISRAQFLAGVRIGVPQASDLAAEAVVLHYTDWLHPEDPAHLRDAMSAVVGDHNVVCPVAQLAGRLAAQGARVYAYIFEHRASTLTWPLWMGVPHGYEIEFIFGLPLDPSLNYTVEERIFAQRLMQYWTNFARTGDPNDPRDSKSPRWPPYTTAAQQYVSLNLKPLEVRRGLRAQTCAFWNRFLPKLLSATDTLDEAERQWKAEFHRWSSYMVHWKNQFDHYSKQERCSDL

As for `CN(C)CCOc1ccccc1NC(=O)CCc1ccccc1` [Compound 10d], the “Selectivity for AChE” value at AChE is 0.13. For the same compound, the half-inhibitory concentration (IC50) was determined as 285 ± 4.69 µM on AChE and 36.6 ± 1.38 µM against BChE. In addition, the logP in series [1] turned out to be 2.14. Besides, the pKa in series [2] turned out to be 7.19.

Turning to `O=C(CCc1ccccc1)Nc1cccc(OCCN2CCCCC2)c1` [Compound 11f], at AChE, the “Selectivity for AChE” value was 0.93 and the IC50 worked out at 69 ± 2.64 µM. For the same compound, in series [1], the logP is 3.22. For the same compound, the pKa in series [2] was found to be 6.78. Besides, at BChE, the IC50 was 64 ± 1.92 µM.

Consider `CN(C)CCOc1cccc(NC(=O)C=Cc2ccccc2)c1` [Compound 5d], for which the “Selectivity for AChE” value on AChE was found to be 1.30. Besides, the results for the IC50 against AChE and on BChE were 20.5 ± 3.13 µM and 26.5 ± 0.56 µM, respectively. This compound had a logP in series [1] of 0.96. The pKa in series [2] stood at 6.51.

Consider `CN(C)CCOc1cccc(NC(=O)CCc2ccccc2)c1` [Compound 11d], for which, on AChE, the “Selectivity for AChE” value was determined as 0.26 and the IC50 was found to be 59.2 ± 3.34 µM. The logP in series [1] stood at 1.19. In series [2], the pKa is 6.45. Moreover, the IC50 against BChE stood at 15.5 ± 1.21 µM.

`C/C=C/C=C/C(=O)Nc1cccc(OCCN2CCCCC2)c1` [Compound 17f]: at AChE, the “Selectivity for AChE” value turned out to be 0.76 and the IC50 stood at 44.2 ± 1.36 µM. This compound yielded a logP in series [1] of 2.23. For the same compound, the pKa in series [2] worked out at 7.17. Moreover, on BChE, half-maximal inhibition (IC50) required 33.6 ± 1.59 µM.

Take `CN(C)CCOc1ccccc1NC(=O)C=Cc1ccccc1` [Compound 4d]: on AChE, the “Selectivity for AChE” value turned out to be 0.07 and the 50% inhibitory concentration (IC50) came to 161 ± 2.19 µM. This compound also had a logP in series [1] of 2.78. Besides, the pKa in series [2] came out at 6.96. For the same compound, the 50% inhibitory concentration (IC50) against BChE worked out at 11.2 ± 0.34 µM.

With `C/C=C/C=C/C(=O)Nc1ccc(OCCN(CC)CC)cc1` [Compound 18e], at AChE, the “Selectivity for AChE” value is 0.50 and the IC50 was 189 ± 4.55 µM. In addition, the logP in series [1] turned out to be 1.31. In addition, in series [2], the pKa came to 7.16. Further, on BChE, the 50% inhibitory concentration (IC50) came out at 94.5 ± 4.26 µM.

For the compound `CCN(CC)CCOc1ccc(NC(=O)CCc2ccccc2)cc1` [Compound 12e], on AChE, the “Selectivity for AChE” value is recorded as 2.50 and the IC50 was found to be 84.6 ± 6.1 µM. Further, the lipophilicity (logP) in series [1] was found to be 2.58. Also, the pKa in series [2] came out at 6.52. In addition, the IC50 against BChE stood at 212 ± 4.87 µM.

On to `CCCCCC(=O)Nc1cccc(OCCN(CC)CC)c1` [Compound 23e], for which, on AChE, the “Selectivity for AChE” value is recorded as 0.01 and the IC50 came out at 125 ± 4.23 µM. Also, the logP in series [1] was 0.93. For the same compound, the pKa in series [2] was determined as 7.15. The IC50 against BChE is 0.67 ± 0.04 µM.

Regarding `O=C(CCc1ccccc1)Nc1ccc(OCCN2CCCC2)cc1` [Compound 12g], the IC50 against AChE came out at 24.4 ± 0.76 µM; on BChE it was 98.5 ± 1.09 µM. Further, the logP in series [1] was determined as 2.26. The pKa in series [2] was determined as 6.8.

For `CCCCCC(=O)Nc1cccc(OCCN2CCCC2)c1` [Compound 23g], at AChE, the “Selectivity for AChE” value came out at 0.01 and the IC50 was determined as 50.7 ± 2.66 µM. The logP in series [1] amounted to 1.37. In series [2], the pKa amounted to 7.69. Further, on BChE, the IC50 was 0.34 ± 0.01 µM.

As for `O=C(C=Cc1ccccc1)Nc1ccccc1OCCN1CCCC1` [Compound 4g], at AChE, the “Selectivity for AChE” value is 0.01 and the IC50 came to 170 ± 8.49 µM. The logP in series [1] turned out to be 2.19. For the same compound, the pKa in series [2] was determined as 7.33. This compound showed an IC50 against BChE of 1.56 ± 0.42 µM.

Turning to `C/C=C/C=C/C(=O)Nc1ccccc1OCCN1CCCCC1` [Compound 16f], on AChE, the “Selectivity for AChE” value is on record as 0.16. The IC50 was 170 ± 4.11 µM against AChE and 27.7 ± 1.29 µM against BChE. In series [1], this compound gave a logP of 0.67. In addition, the pKa in series [2] was found to be 6.86.

For the compound `CCN(CC)CCOc1cccc(NC(=O)CCc2ccccc2)c1` [Compound 11e], at AChE, the “Selectivity for AChE” value is 0.08 and the IC50 was found to be 102 ± 3.36 µM. Besides, the logP in series [1] stood at 2.23. In series [2], the pKa came out at 6.51. Moreover, the IC50 against BChE was determined as 8.23 ± 0.59 µM.

As to `CCCCCC(=O)Nc1ccc(OCCN2CCCC2)cc1` [Compound 24g], at AChE, the “Selectivity for AChE” value was determined as 0.82 and the IC50 came out at 16.9 ± 0.91 µM. In series [1], this compound showed a logP of 0.16. Moreover, the pKa in series [2] is 6.92. At BChE, this compound gave an IC50 of 13.9 ± 1.66 µM.

For `O=C(CCc1ccccc1)Nc1ccccc1OCCN1CCCCC1` [Compound 10f], the “Selectivity for AChE” value at AChE is 0.002. In addition, the IC50 on AChE was found to be 250 ± 8.21 µM; against BChE, 0.59 ± 0.09 µM. Moreover, the logP in series [1] is 1.18. The pKa in series [2] turned out to be 7.02.

Turning to `CCN(CC)CCOc1cccc(NC(=O)C=Cc2ccccc2)c1` [Compound 5e], at AChE, the “Selectivity for AChE” value amounted to 0.86 and half-maximal inhibition (IC50) was put at 49.4 ± 1.91 µM. In series [1], this compound displayed a logP of 2.56. Moreover, in series [2], the pKa amounted to 7.16. Further, the midpoint of inhibition against BChE, the IC50, lay at 42.5 ± 0.67 µM.

As for `C/C=C/C=C/C(=O)Nc1ccc(OCCN2CCCC2)cc1` [Compound 18g], at AChE, the “Selectivity for AChE” value was found to be 8.63 and the IC50 is 13.6 ± 1.24 µM. Further, in series [1], the log partition coefficient (logP) turned out to be 1.18. In series [2], the pKa stood at 7.73. The IC50 at BChE is 118 ± 6.79 µM.

These data come from paper PMC6010128, “Structure–activity relationship investigation of tertiary amine derivatives of cinnamic acid as acetylcholinesterase and butyrylcholinesterase inhibitors: compared with that of phenylpropionic acid, sorbic acid and hexanoic acid” (Journal of Enzyme Inhibition and Medicinal Chemistry, 2018).
